Common to all, as to format: in vivo
The test system of assay [1] is SFV-infected WT and γδ KO mice. In words: E2 137-151 peptide immunization during SFV disease: serum antibody response (ELISA). The text has this:
Optical densities (OD) (3A) and ratios (3B) of Non-immunized/Immunized, WT and KO, of ELISA responses to SFV and to E2 peptide, 137-151 is shown. Samples were collected on days 15, 21, 28 and 35 after intraperitoneal infection of B6 mice with SFV and immunization with E2 137-151. The dilutions for sera were 1:80, Amount of antibody is shown as mean optical density (OD) of sera from three experiments±standard error of the mean (SEM). The background OD is subtracted from each time point.
(§1) To measure the antibody response of both WT and γδ KO mice against SFV and two of the peptides of the SFV envelope protein, E2, an indirect ELISA was performed. Sera were pooled from 4-6 SFV-infected WT, and 3 KO, mice on days 0, 7, 14, 21 and 35 pi. Briefly, Immunolon 2HB 96 well microtiter plates (VWR, Bridge Port, N.J.) were coated with 1 μg/well of each antigen in 100 μl/well carbonate buffer overnight at room temperature. After washing, the plates were blocked and serum samples were added. […] After washing, biotinylated goat anti-mouse Igs (BD Pharmingen, Torreyana, Calif.), Strepavidin conjugated to Horse Radish Peroxidase (Vector Laboratories, Burlingame, Calif.), and OPD substrate (Sigma, St. Louis, Mo.) were used, as previously described (4, 9). […] Values were considered to be positive when they were >0.3 OD units and exceeded the mean value plus three standard deviations for antibody response on day 0 pi of mice of the same strain.
WT and KO mice were immunized subcutaneously with E2 137-151 (0.5 mg/injection or 25 mg/kg, based on the average weight of 20 g/mouse) in IFA on the day of SFV-infection. Additional injections of E2 137/IFA were performed on days 5 and 15 for WT and KO mice. Mice are sacrificed on days 15, 21, 35 and 42 pi and sera were tested by ELISA for reactivity with SFV and its peptides. […] This immunization, however, appeared to have suppressed the formation of anti-E2 137-151 antibody in SFV-infected, E2 137-151-immunized WT mice.
In general terms: In an ELISA, binding on a coated surface is turned into a signal by an enzyme label.

Assay [2] concerns B6 mice with EAE. Nature of the assay: Antibody responses (ELISA) of E2 137-151 peptide treated EAE mice. Here is the method: FIG. 7 Comparison of antibody responses (±SEM) of EAE, E2-137-151 peptide treated, and untreated EAE mice to E2-137-151, MOG 35-55 and control peptides. Three experiments were performed with total number of 21 EAE and 22 treated EAE. All mice were immunized subcutaneously with myelin oligodendrocyte glycoprotein (MOG) peptide, 35-55 in CFA, as described above, on D0. EAE mice were treated as described for FIG. 6. All mice were sacrificed at the end of experiment on D39 post immunization.
as §1
Antibody Responses of RAE and E2 137-151 treated EAE mice to E2-137 and control peptide (E2 115-129) were measured by ELISA at the end of experiment on D39 pi.

In assay [3] the test system is B6 mice with EAE. Nature of the assay: Clinical scores of E2 137-151 peptide-treated mice with MOG 35-55 induced EAE. Conditions: for Disease severity, treatment from D12 post-EAE induction, compared with untreated EAE mice: 0.5 mg/injection sc in IFA on D12, 17, 22, peak D19. Here is the method:
FIG. 6 Comparison of Average Clinical Scores (±SEM) of E2 137-151 peptide-treated, and untreated B6 mice with EAE, on different days post treatment. Data shown is the average of three experiments, total numbers of mice were 21 EAE and 22 treated EAE mice. All mice were immunized subcutaneously with myelin oligodendrocyte glycoprotein (MOG) peptide 35-55 in CFA, on D0. Treated EAE mice received subcutaneous injection of E2-137 peptide (0.5 mg/injection or 25 mg/kg, based on the average weight of 20 g/mouse) in IFA, on day 12 post EAE induction. Additional inoculations of E2-137 peptide/IFA were performed twice more with 5-day intervals. Following the injection, animals were observed daily for clinical manifestations of disease and were scored on a scale of 0-VI, as above. Clinical scores of sacrificed and dead animals have been considered in average calculation till the end of the experiments on day 39.
Method—To induce EAE, fourteen 7-8 wk old B6 mice (Jackson Laboratories, Bar Harbor, Mass.) were each inoculated, subcutaneously, with […] MOG 35-55 in Complete Freund's Adjuvant (CFA) or CFA only (as control), followed by two injections of 100 ng of pertusis toxin, 48 hours apart (9, 73). Eight mice in EAE-induced group were immunized subcutaneously with E2-137-151 (0.5 mg/injection or 25 mg/kg, based on the average weight of 20 g/mouse) in IFA, one day after MOG inoculation. One additional inoculation of E2 137-151/IFA was performed 5 days later. Animals were observed daily for clinical manifestations of disease and were scored on a scale of 0-VI. 0=no abnormality; I=mild hind limb weakness (some difficulty righting themselves when turned on their back); II=moderate hind limb weakness, sometimes associated with floppy tail; III=weakness of hind limbs accompanied by some forelimb weakness, sometimes more marked on one limb or one side, but not complete paralysis; IV=hind limb paresis accompanied by mild forelimb weakness; V=paralysis of hind limbs, associated with moderate forelimb weakness; and VI-quadriplegia, moribund.
Result—Mice were immunized with MOG 35-55 in CFA, to induce EAE as described above. In the first two experiments, mice were divided into two groups, untreated, and treated after EAE induction. The treated EAE group received E2-137-151 peptide in IFA, subcutaneously on D5 post-EAE induction, before the signs of clinical disease were apparent.
Next, three experiments were performed with a total number of 21 RAE and 22 late treated EAE mice. […] EAE mice were further treated with E2-137-151 peptide on days 17 and 22 post-EAE induction. […] Peak of the disease in both RAE and D12 treated EAR mice were on D19 pi.

Results on one compound are retold here after US20090311246A1, “Method of Enhancing Remyelination in Demyelinating Diseases of the Central Nervous System” (priority 2008, published 2009).

“Also recorded” adds a separate entry of the source. Bounds are passed on as bounds.

Take `CC[C@H](C)[C@H](NC(=O)[C@H](CCC(=O)O)NC(=O)[C@H](CCCCN)NC(=O)CNC(=O)[C@H](Cc1ccc(O)cc1)NC(=O)[C@H](Cc1c[nH]cn1)NC(=O)[C@@H]1CCCN1C(=O)[C@H](CCCNC(=N)N)NC(=O)[C@@H](NC(=O)[C@@H](NC(=O)[C@H](Cc1ccccc1)NC(=O)[C@H](CCCCN)NC(=O)[C@H](CCC(=O)O)NC(=O)[C@H](CCCNC(=N)N)NC(=O)CN)[C@@H](C)O)[C@@H](C)CC)C(=O)O` [E2 137-151]: in assay [1] (0.5 mg/injection sc in IFA, WT mice), the “Formation of anti-E2 137-151 antibody in SFV-infected, immunized WT mice” value is on record as “suppressed”. Moreover, in assay [1] (KO and WT mice), the “Ratio of antibody production to SFV, immunized versus non-immunized” value is listed as “did not increase”. Also, the “Antibody to E2 137-151 peptide after immunization” value in assay [1] (SFV-infected KO mice) was “increased the antibody to this peptide only”. Further, the “Ratio of KO/WT anti E2 137-151 antibody production” value in assay [1] (immunized versus non-immunized) is listed as “significantly increased”. In addition, the “Antibody response to E2-137, treated compared with untreated EAE mice” value was “significantly higher than untreated EAE mice” with B6 mice with EAE [2] (ELISA, D39 pi) and “treated>untreated EAE mice” in the assay on B6 mice with EAE [2] (ELISA, D39 pi, listed as E2-137 peptide). For the same compound, the “Antibody responses to MOG 35-55 and control peptide, treated compared with untreated EAE mice” value in the assay on B6 mice with EAE [2] (ELISA, D39 pi) is “no significant difference”. Further, in the assay with B6 mice with EAE [2] (preliminary experiments), the “Reactivity of sera from treated EAE mice with MBP 54-68” value was “also reacted with MBP 54-68”. Further, the “Disease severity, treatment from D12 post-EAE induction, compared with untreated EAE mice” value in the assay with B6 mice with EAE [3] is listed as “significantly less severe disease on peak day”; in the assay with B6 mice with EAE [3] (listed as E2 137-151 peptide), “significantly suppressed the clinical disease; also recorded: improved clinical EAE”; with B6 mice with EAE [3] (listed as E2-137 peptide), “Average disease severity in EAE mice was significantly higher than treated EAE mice”. Moreover, the “Clinical disease score at the peak of the disease on D19” value in the assay on B6 mice with EAE [3] (19 treated EAE mice (of 22), scale 0-VI) is given as less than 1.5. The “Clinical signs of EAE, treatment on D5 post-EAE induction” value with B6 mice with EAE [3] (E2-137-151 peptide in IFA sc before clinical signs) is given as “absence of clinical signs of EAE”.
